The results in this text go back to patent publication US12318358B2, “Probenecid for use in treating epileptic diseases, disorders or conditions” (PARIS SCIENCES ET LETTRES—QUARTIER LATIN, priority 2017, dated 2025).

The test system of assay [1] is human epileptic cortical slices. Description: Multi-electrode array (MEA) recordings of ictal-like discharges in human epileptic cortical slices in pro-epileptic conditions. Type of assay: cell-based. On the procedure:
The resected cortical block was prepared according to Dossi et al. (J Vis Exp. 2014 Oct. 26; (92):e51870). Briefly, post-surgical tissue was transported in a cold solution containing (in mM) 250 D-sucrose, 25 NaHCO3, 3 KCl, 1 CaCl2, 10 MgCl2 and 10 D-glucose, and oxygenated with carbogen (95% O2 and 5% CO2). Meninges, blood clots and vessels were gently removed and transverse cortical slices (400 μm-thick) were cut with a vibratome (HM650V, Microm Microtech, France). They were maintained at 37° C., equilibrated with 95% 02 and 5% CO2, in an interface chamber, continuously perfused with an artificial cerebro-spinal fluid (ACSF) containing (in mM) 124 NaCl, 3 KCl, 26 NaHCO3, 1.6 CaCl2, 1.3 MgCl2 and 10 D-glucose at 2 ml/min, for at least 1 hour before recording.
Cortical slices were transferred on planar MEA petri dishes (200-30 ITO electrodes, organized in a 12×12 matrix, with internal reference, 30 μm diameter and 200 μm inter-electrode distance; Multichannel Systems, Germany). They were kept in place using a platinum anchor and continuously perfused at a rate of 5-6 ml/min with ACSF.
Pictures of cortical slices on MEAs were acquired with a video microscope table (MEA-VMT1; Multichannel Systems, Germany) through MEA_Monitor software (Multichannel Systems, Germany) to identify the location of the electrodes relatively to the pial surface of the slices. Data were sampled at 10 kHz and the slice activity was recorded at 37° C. by a MEA2100-120 system (bandwidth 1-3000 Hz, gain 5×; Multichannel Systems, Germany) through MC_Rack 4.5.1 software (Multichannel systems, Germany) The activity of the slices was recorded in ACSF containing (in mM) 124 NaCl, 3 KCl, 26 NaHCO3, 1.6 CaCl2, 1.3 MgCl2 and 10 D-glucose (Ct ACSF) and in high potassium, magnesium-free pro-epileptic ACSF containing (in mM) 6 KCl, 0 Mg^2+ (6K 0Mg-ACSF).
To investigate whether probenecid medication could be used as a treatment for epileptic seizures, the electrophysiological activity of human epileptic cortical slices was recorded in pro-epileptic conditions, before and after probenecid administration (1 mM, 30 minutes).

In assay [2] the test system is kainate (KA) mouse model of chronic temporal lobe epilepsy. Description: Telemetric EEG recording of spontaneous seizures in kainate (KA) mouse model of chronic temporal lobe epilepsy. Type of assay: in vivo, C57BL/6j male mice. The settings on record: for Seizure duration / Seizure frequency: 200 mg/kg i.p. single injection, n = 5. On the procedure: Six weeks old C57BL/6j male mice were injected unilaterally with kainate (KA; 0.05 μl, 20 mM in saline) at a rate of 0.5 μl/min in the CA1 area of the right hippocampus (−2 mm anteroposterior, +1.5 mm lateral, −1.4 mm dorso-ventral) by mean of a stereotaxic apparatus and a cannula (0.29 mm diameter) connected to a precision pump. Mice were then left 3 weeks for settling of the chronic epileptic phenotype.
EEG experiments were carried out using wireless ETA-F 10 transmitters (DataSciences International, USA) for chronic EEG recording and video monitoring 3 weeks after KA injection. After anesthesia (ketamine, 95 mg/kg; xylazine, 10 mg/kg; i.p.), a 1 cm midline sagittal incision was made starting above the skull midline and extending along the neck to create a pocket for subcutaneous placement of the transmitter along the dorsal flank of the animal. The recording flexible electrodes (stereotaxic coordinates: −2 mm anteroposterior, +1.5 mm and −1.5 mm lateral) were implanted subdurally through small holes drilled in the skull and held in place with dental cement. Mice were implanted with wireless ETA-F10 transmitters 2 weeks after the KA injection and were allowed to recover for 7 days before recording.
EEG signal was collected through DSI radiofrequency receivers placed under each cage. EEG data were acquired at a sampling rate of 200 Hz using the DSI Dataquest A.R.T. system (version 4.33). To assess therapeutic potential of probenecid, KA mice were recorded with ETA-F10 DSI EEG electrodes for 48 h in their home cage, injected with probenecid (200 mg/kg in corn oil, Sigma-Aldrich; i.p.) and recorded for 24 hours post-treatment. Analysis of seizures was performed using the NeuroScore software (Data Sciences International, USA); seizures were detected on the EEG as spike trains with a minimal amplitude of 1.5× baseline and a minimal duration of 5 s at a frequency ≥1 Hz (Bergstrom et al., Sci Rep. 2013; 3:1483. doi: 10.1038/srep01483). Artifacts were automatically detected using a high detection threshold and removed manually.
To further assess the therapeutic potential of probenecid, we tested the in vivo effect of probenecid i.p. in a kainate (KA) mouse model of chronic temporal lobe epilepsy. To do so, electroencephalogram (EEG) of KA mice were recorded before (48 hours) and after (24 hours) probenecid administration (200 mg/kg) (FIG. 1C).

The mark [3] stands for this setting: probenecid 1 mM, 30 minutes, pro-epileptic ACSF (6K 0Mg), n = 6 slices.
The mark [4] stands for this setting: 20-24 hours post-treatment, single injection 200 mg/kg i.p.

For `CCCN(CCC)S(=O)(=O)c1ccc(C(=O)O)cc1` [Probenecid, 4-(dipropylsulfamoyl)benzoic acid], in assay [1] (PBN 1 mM, 30 min, PIDs do not disappear), the “Effect on IDs (FIG. 1A example recording)” value was “disappear”. In assay [1] (probenecid 1 mM, 30 minutes), the “human cortical slices in which ictal-like discharges (IDs) were fully inhibited” value is given as 5 out of 6. For the same molecule, in assay [1] (setting [3]), the ID duration was determined as 7.59 ± 7.59 s and the ID frequency is 0.03 ± 0.03 IDs/min. Also, in assay [1] (probenecid 1 mM, 30 minutes, the one slice not fully inhibited), the “ID duration in the remaining slice” value is “halved”. For the same molecule, in assay [2] (4-8 h post-treatment), the Seizure duration result was “no seizure detected” and the Seizure frequency result is “no seizure detected”. Also, in assay [2] (4 to 8 hours post-treatment, single injection 200 mg/kg i.p., in all mice tested), the “Effect on spontaneous seizures” value is “completely blocked”. In assay [2] (setting [4]), the “Duration of reappeared seizures versus pre-treatment” value is on record as “significantly shorter duration” and the “Mice in which seizures reappeared” value is 2 of 5. For the same molecule, in assay [2] (20-24 h post-treatment), the Seizure duration is given as 3.6 ± 2.25 s and the Seizure frequency worked out at 1.2 ± 0.97 seizure/4 h.
